# Experiments:
# cGAS-STING pathway [1] = experiment: Secretion levels of cGAMP and IFN-β in B16F10 cells; assay type: cell-based; conditions: KLA-treated B16F10 cells; n = 3
# B16F10 cells [2] = experiment: qRT-PCR quantification of cytosolic mtDNA; assay type: cell-based; conditions: n = 3
# Experimental: (§1) B16F10 cells were seeded in a 12-well plate at a density of 5×10^4 cells per well and […]
# (§2) with PBS, the cells were collected by centrifugation. Cytosolic mtDNA was […] using a Cell Mitochondria Isolation Kit (C3601, Beyotime, China), and the DNA was then extracted with a TIANamp Genomic DNA kit (DP304, Tiangen Biotech, China) following the manufacturer’s protocol. The mtDNA D-Loop primers were synthesized by GenePharma Biotech (detailed sequences in Table S3, Supporting Information), and then quantified with Multiplex PCR Kit (PM101, Novoprotein , Shanghai, China) using Quantitative Real-Time PCR Detection System (Bio-Rad, CFX96, USA).
# (§3) Caspase-9 and Caspase-3 Activity Assay
# (§4) The B16F10 cells were seeded into a 6-well plate at the density of 2×10^5 cells per […]
# (§5) cells were rinsed with PBS for three times and then treated with lysis buffer solution in ice bath for 1 h. Cell lysates were centrifuged at 12000 rpm for 5 min at 4 °C, and the supernatant was collected. The supernatant was incubated with caspase-9 or caspase-3 substrate at 37 °C in dark for 12 h. The activities of caspase-9 and caspase-3 were […]
# (§6) Evaluation of cGAS-STING Pathway Activation
# (§7) Western bolt was employed to evaluate the MAPN-mediated activation of cGAS-STING pathway. Briefly, B16F10 cells were first seeded into 24-well plates at 2×104 […]
# (§8) culture medium with or without H2O2 (100 μM). […]
# cGAS-STING pathway [3] = experiment: Western blot of p-STING, p-TBK1 and p-IRF3 in B16F10 cells; assay type: cell-based; conditions: 40 µM, n = 3
# Experimental: as §1, §2, §3, §4, §5, §6, §7, §8
# B16F10 cells [4] = experiment: mtDNA leakage assay, immunofluorescence of dsDNA Marker and anti-TOMM20 (CLSM); assay type: cell-based; conditions: KLA-treated B16F10 cells, n = 3
# Experimental: The endosomal escape ability of MAPN was study by analyzing the colocolization of endosomes and KLA after internalizing into cells. Briefly, B16F10 cells were seeded […]
# overnight for cell attachment. KLA was labeled with FITC. The cells were incubated […]
# H2O2 (100 μM) for 4 h. After 1 h, 3 h, and 6 h incubation, endosomes were stained with LysoTracker probe (red) according to manufacture’s instruction. The cells were then […]
# at room temperature, and counterstained with DAPI for the easy observation of cell […]
# In Vitro PD-1/PD-L1 Pathway Blockade
# MAPN-mediated PD-1/PD-L1 pathway blockade was evaluated with anti-PD-L1 (sc-518027, Santa Cruz, USA) staining. Briefly, B16F10 cells were seeded at a density […]
# at room temperature, and then stained with Alexa Fluor 594 (red) labeled anti -PD-L1 […]
# B16F10 cells were seeded at a density of 1×10^4 cells per well in 35 mm confocal dish (Ф =15 mm) and incubated overnight for cell attachment. The cells were incubated […]
# without H2O2 (100 μM) for 24 h. After washing with PBS, the cells were permeabilized, and incubated with Anti-TOMM20 antibodies (GB111481, Servicebio, China) and dsDNA Marker (sc-58749, Santa Cruz, USA) at 4 °C overnight, and then incubated with secondary antibodies for 2 h and counterstained with DAPI. All the cells were observed using a CLSM (Zeiss, Germany).
# The qPCR Quantification of Cytosolic mtDNA
# [5] = system: B16F10 tumor-bearing C57BL/6 mouse model; experiment: Anti-tumor immune responses after i.t. or i.v. injection of AMPs; assay type: in vivo, C57BL/6 mice; conditions: 7.5 mg kg^-1; for DCs maturation (CD80+ CD86+ CD11c+ cells) in lymph nodes: representative flow cytometric plot
# Experimental: Next, the B16F10 tumor‐bearing C57BL/6 mouse model was established to investigate whether KLA can initiate efficient anti‐tumor immune responses by activating the cGAS‐STING pathway. The KLA was administrated either through intratumoral (i.t.) or intravenous (i.v.) injection at the dose of 7.5 mg kg^−1, 17BIPHE2 and CGA‐N12 were employed as comparative groups.
substance,measurement,setting,value
KLAKLAK2 [model antimicrobial peptide that promotes mtDNA leakage by changing mitochondrial inner membrane permeability],"IFN-β level, fold over PBS-treated cells",cGAS-STING pathway [1],2.03 fold
same,"cGAMP level, fold over PBS-treated cells",cGAS-STING pathway [1],1.85 fold
same,"cytosolic mtDNA level, fold over 17BIPHE2-treated cells",B16F10 cells [2],2.41 fold
same,"cytosolic mtDNA level, fold over CGA-N12-treated cells",B16F10 cells [2],1.87 fold
same,"phosphorylation levels of STING, TBK1, and IRF3 proteins",cGAS-STING pathway [3],remarkably increased
same,Pearson correlation coefficient of dsDNA and mitochondria (TOMM20),B16F10 cells [4],0.464
same,"DCs maturation, fold over PBS treatment","[5]; i.t. injection, n = 6",2.53 fold
same,"pro-inflammatory cytokines (IFN-β, IFN-γ, TNF-α, IL-6, IL-12) in tumor tissues compared with other groups","[5]; i.t. injection, n = 6",significantly higher levels
same,"tumor-infiltrating CD8+ T cells, fold over PBS treatment","[5]; i.t. injection, n = 6",2.36 fold
same,DCs maturation (CD80+ CD86+ CD11c+ cells) in lymph nodes,[5]; i.t. injection,31.4%
same,initiation of systemic anti-tumor immune responses,[5]; i.v. injection,weak effect
same,DCs maturation (CD80+ CD86+ CD11c+ cells) in lymph nodes,[5]; i.v. injection,17.9%
